Laboratory results taken from ChEMBL document CHEMBL1201862, “PubChem BioAssay data set” (2004).
Calls of active or inactive are those of the source.

What was measured:
Wee1-like protein kinase = Wee1-like protein kinase (Homo sapiens, UniProt P30291); assay: G2/M cell cycle arrest in HeLa, late-stage follow-up, mechanism study for Wee1 degradation inhibitor project, FACS, panel member Wee1 Degradation (AID 2088)
[1] = target: G2/mitotic-specific cyclin-B1 (Homo sapiens, UniProt P14635); assay: G2/M cell cycle arrest in HeLa, late-stage follow-up, mechanism study for Wee1 degradation inhibitor project, FACS, panel member Cyclin B Degradation (AID 2088)
Estrogen receptor = target: T1, Estrogen receptor (Homo sapiens, UniProt P03372);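 also: potency for inhibiting coactivator peptide recruitment to the receptor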
T1 sequence (P03372 whole entry): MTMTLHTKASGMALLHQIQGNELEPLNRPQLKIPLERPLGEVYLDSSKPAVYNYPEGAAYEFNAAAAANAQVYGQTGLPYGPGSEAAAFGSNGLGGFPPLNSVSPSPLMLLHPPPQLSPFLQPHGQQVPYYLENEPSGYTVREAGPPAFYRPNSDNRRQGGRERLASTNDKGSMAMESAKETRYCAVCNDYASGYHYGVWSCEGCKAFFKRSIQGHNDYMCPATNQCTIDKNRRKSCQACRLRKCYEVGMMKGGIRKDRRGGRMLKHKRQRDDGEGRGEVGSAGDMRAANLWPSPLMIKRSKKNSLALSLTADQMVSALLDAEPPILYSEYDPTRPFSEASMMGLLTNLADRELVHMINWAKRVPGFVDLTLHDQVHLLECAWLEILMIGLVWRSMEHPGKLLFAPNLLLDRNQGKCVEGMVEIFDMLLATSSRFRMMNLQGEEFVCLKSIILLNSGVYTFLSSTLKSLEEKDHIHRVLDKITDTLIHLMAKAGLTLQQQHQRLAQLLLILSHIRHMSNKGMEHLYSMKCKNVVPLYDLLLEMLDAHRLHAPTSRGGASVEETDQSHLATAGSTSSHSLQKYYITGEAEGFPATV

[2] = target: T2, Replicative DNA helicase DnaB (Mycobacterium tuberculosis, UniProt P9WMR3); assay: DnaB intein splicing inhibitors, dose response, biochemical, cell-free fluorescence (AID 449749); type: functional
T2 sequence (P9WMR3 whole entry): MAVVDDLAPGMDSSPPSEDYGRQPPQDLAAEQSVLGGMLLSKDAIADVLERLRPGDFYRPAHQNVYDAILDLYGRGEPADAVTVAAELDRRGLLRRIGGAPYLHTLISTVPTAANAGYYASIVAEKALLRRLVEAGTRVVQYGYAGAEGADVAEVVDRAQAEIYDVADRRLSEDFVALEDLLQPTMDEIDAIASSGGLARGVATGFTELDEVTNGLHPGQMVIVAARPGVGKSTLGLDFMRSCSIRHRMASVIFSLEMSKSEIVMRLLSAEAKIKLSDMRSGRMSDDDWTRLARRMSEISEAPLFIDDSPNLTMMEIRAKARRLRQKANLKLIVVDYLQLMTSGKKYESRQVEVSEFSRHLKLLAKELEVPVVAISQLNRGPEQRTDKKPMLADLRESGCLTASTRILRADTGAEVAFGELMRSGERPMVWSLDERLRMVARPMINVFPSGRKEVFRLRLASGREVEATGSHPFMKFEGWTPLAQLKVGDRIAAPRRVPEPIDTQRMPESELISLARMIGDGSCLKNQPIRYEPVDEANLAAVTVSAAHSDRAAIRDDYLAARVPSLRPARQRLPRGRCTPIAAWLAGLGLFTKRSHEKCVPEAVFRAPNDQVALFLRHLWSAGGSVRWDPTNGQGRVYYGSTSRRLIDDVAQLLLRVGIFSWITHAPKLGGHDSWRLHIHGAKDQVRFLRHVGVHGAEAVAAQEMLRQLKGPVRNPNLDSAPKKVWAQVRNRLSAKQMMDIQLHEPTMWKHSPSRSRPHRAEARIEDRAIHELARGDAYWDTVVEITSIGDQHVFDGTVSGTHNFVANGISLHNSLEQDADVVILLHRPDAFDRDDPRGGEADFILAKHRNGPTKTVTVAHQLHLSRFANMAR

Protein RecA = target: T3, Protein RecA (Mycobacterium tuberculosis, UniProt P9WHJ3); assay: Fluorescence Cell-Free Homogeneous Dose Retest to Identify Inhibitors of RecA-Intein Splicing Activity. [Related pubchem assays (depositor defined):AID2097, AID2223, AID489010, AID492950]; type: functional
T3 sequence (P9WHJ3 whole entry): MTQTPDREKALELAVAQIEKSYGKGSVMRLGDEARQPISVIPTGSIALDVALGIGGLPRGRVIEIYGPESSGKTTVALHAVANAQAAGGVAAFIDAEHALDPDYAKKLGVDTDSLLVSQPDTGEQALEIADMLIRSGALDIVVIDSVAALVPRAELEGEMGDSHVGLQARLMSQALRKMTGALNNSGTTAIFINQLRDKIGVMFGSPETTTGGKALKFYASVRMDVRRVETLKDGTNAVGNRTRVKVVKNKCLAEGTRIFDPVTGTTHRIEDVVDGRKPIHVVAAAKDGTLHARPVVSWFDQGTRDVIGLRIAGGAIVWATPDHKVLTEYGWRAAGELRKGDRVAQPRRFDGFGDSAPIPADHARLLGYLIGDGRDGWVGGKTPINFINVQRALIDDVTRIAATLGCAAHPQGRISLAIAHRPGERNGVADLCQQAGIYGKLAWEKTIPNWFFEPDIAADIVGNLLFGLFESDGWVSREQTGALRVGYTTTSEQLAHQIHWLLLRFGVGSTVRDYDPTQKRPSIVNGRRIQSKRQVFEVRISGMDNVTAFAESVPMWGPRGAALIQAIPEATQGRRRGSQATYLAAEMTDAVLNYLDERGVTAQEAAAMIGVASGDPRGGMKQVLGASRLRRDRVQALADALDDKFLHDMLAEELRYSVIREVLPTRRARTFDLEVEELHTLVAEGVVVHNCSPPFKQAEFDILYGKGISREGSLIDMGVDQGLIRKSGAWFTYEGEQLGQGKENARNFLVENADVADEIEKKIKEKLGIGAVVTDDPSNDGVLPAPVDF

[3] = A cytotoxicity screen of small molecule inhibitors of the PhoP region in Salmonella typhi identified in the primary screen. [Related pubchem assays: 1850, 1864, 1985 ]; type: functional
Estrogen receptor beta = Estrogen receptor beta (Homo sapiens, UniProt Q92731);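 also: recombinant ER-beta bound to coactivator SRC1 peptide in presence of estradiol agonist; inhibitors block coactivator peptide binding and lower the FRET signal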
[4] = target: Glyceraldehyde-3-phosphate dehydrogenase (Homo sapiens, UniProt P04406)
[5] = target: Alkaline phosphatase, placental type (Homo sapiens, UniProt P05187); assay: PLAP enzyme inhibitors, confirmation, biochemical, luminescence (AID 1512); type: functional
[6] = target: T4, Alkaline phosphatase, tissue-nonspecific isozyme (Homo sapiens, UniProt P05186); assay: human TNAP enzyme inhibitors, SAR follow-up, biochemical, luminescent, dose response (AID 1056)
T4 sequence (P05186 whole entry): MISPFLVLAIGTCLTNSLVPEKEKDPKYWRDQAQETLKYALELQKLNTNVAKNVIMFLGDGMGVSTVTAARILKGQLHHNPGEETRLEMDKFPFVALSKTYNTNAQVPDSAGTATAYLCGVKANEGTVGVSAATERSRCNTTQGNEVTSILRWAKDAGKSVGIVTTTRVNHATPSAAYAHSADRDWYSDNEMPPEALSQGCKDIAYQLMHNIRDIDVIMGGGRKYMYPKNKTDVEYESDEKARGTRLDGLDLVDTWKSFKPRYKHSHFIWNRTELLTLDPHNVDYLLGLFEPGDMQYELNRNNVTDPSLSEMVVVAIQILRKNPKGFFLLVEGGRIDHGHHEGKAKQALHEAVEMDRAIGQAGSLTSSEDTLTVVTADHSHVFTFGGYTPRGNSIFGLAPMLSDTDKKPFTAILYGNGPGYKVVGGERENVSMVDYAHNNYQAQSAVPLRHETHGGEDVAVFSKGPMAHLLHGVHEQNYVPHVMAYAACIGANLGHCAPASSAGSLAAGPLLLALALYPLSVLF

[7] = growth suppression of PTEN-null colon cells, dose response, cell-based, HCT116 PTEN knockout (AID 1047); type: functional;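 also: HCT116 colon tumor cells with PTEN knocked out; cells exposed to compound for 60 hours before readout; potency for loss of cell viability measured by luminescence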
[8] = growth suppression of beta-catenin-knockout colon cells, dose response, cell-based, HCT116, human colon tumor (AID 1045); type: functional;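 also: HCT116 colon tumor cells with beta catenin knocked out; cells exposed to compound for 60 hours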
[9] = THP-1 cell cytotoxicity, dose response, cytotoxicity control for non-replicating M. tuberculosis project (AID 489025); type: functional
[10] = HepG2 cell cytotoxicity, dose response, cytotoxicity control for non-replicating M. tuberculosis project (AID 489018); type: functional; details: Mycobacterium tuberculosis
[11] = Vero E6 cell cytotoxicity, dose response, cytotoxicity control for non-replicating M. tuberculosis project, secondary assay (AID 492998); type: functional, VeroE6; details: Vero C1008
cells = type: functional
Hexokinase HKDC1 = target: T5, Hexokinase HKDC1 (Homo sapiens, UniProt Q2TB90); assay: HKDC1 hexokinase inhibitors, dose response, biochemical, W721R variant (AID 504729); type: functional
T5 sequence (Q2TB90 whole entry): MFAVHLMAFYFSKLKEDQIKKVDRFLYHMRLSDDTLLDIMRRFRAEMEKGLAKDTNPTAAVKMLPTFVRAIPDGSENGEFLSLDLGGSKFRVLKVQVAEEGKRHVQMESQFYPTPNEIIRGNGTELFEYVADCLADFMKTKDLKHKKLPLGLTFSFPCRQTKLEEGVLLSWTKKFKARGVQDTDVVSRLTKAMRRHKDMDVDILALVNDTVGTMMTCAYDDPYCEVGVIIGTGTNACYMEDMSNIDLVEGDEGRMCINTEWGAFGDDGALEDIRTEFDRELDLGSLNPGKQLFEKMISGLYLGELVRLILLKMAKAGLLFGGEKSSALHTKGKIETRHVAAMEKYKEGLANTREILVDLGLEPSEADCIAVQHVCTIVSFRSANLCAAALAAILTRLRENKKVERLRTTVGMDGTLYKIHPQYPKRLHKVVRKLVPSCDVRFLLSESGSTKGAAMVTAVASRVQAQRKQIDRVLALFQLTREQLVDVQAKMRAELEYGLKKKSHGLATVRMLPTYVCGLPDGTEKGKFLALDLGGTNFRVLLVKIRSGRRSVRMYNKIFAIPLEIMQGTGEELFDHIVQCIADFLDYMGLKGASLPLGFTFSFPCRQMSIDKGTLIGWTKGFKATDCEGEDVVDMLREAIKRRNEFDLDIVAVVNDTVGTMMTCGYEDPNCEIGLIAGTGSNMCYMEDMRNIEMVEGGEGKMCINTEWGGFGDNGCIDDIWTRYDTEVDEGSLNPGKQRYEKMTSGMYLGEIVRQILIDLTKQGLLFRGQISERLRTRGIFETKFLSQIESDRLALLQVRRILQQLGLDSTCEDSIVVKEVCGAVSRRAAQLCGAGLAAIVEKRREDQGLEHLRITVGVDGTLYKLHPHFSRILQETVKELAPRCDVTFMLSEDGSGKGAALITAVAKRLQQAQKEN

Chain of Wee1-like protein kinase (P30291 whole entry): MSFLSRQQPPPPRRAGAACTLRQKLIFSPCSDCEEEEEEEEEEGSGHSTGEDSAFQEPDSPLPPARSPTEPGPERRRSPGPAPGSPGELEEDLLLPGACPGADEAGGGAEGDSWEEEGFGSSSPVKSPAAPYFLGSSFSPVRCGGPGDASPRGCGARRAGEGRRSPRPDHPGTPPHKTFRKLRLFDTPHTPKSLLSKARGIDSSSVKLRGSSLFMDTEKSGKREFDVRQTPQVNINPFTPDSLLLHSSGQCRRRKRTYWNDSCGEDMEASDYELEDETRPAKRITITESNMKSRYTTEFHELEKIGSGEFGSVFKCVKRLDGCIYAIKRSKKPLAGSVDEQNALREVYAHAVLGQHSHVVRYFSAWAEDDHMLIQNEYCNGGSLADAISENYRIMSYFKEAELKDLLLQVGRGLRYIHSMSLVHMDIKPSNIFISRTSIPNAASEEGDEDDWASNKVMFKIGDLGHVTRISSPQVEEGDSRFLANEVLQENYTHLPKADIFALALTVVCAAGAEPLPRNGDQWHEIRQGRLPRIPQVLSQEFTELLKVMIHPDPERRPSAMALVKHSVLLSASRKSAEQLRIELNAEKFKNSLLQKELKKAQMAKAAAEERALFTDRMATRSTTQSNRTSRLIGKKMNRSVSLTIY
Chain of G2/mitotic-specific cyclin-B1 (P14635 whole entry): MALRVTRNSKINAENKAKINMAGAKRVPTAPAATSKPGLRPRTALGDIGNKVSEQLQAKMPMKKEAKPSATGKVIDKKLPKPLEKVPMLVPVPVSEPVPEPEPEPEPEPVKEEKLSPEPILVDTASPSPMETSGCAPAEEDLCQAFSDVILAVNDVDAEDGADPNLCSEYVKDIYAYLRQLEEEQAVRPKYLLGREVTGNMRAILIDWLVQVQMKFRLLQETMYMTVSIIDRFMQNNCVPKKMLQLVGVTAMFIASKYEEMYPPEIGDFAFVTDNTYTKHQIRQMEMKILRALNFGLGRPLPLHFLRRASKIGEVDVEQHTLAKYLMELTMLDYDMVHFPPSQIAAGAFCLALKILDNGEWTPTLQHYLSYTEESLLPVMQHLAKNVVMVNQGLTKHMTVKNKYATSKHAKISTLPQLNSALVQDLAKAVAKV
Chain of Glyceraldehyde-3-phosphate dehydrogenase (P04406 whole entry): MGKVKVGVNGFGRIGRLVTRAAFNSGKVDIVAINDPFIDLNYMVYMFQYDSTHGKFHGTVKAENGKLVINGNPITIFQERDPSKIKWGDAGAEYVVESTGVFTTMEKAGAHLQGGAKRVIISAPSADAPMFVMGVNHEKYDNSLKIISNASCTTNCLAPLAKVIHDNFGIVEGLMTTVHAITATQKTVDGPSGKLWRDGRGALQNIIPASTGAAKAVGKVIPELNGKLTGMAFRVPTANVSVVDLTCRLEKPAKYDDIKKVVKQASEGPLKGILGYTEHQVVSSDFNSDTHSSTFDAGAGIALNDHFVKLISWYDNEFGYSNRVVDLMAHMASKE
Chain of Alkaline phosphatase, placental type (P05187 whole entry): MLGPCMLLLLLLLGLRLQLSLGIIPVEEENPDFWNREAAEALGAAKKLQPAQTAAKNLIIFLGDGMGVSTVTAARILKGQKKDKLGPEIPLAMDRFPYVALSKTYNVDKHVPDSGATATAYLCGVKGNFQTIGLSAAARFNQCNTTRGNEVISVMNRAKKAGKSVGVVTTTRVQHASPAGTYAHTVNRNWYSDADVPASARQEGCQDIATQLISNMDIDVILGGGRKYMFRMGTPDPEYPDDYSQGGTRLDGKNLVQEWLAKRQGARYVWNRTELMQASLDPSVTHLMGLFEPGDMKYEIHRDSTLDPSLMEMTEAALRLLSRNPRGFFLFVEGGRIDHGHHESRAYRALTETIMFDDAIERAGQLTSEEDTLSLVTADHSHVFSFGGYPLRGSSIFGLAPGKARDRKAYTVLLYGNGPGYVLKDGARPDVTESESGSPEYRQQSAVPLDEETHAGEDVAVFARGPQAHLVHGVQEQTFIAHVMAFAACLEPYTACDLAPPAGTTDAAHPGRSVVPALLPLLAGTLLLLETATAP
Chain of Estrogen receptor beta (Q92731 whole entry): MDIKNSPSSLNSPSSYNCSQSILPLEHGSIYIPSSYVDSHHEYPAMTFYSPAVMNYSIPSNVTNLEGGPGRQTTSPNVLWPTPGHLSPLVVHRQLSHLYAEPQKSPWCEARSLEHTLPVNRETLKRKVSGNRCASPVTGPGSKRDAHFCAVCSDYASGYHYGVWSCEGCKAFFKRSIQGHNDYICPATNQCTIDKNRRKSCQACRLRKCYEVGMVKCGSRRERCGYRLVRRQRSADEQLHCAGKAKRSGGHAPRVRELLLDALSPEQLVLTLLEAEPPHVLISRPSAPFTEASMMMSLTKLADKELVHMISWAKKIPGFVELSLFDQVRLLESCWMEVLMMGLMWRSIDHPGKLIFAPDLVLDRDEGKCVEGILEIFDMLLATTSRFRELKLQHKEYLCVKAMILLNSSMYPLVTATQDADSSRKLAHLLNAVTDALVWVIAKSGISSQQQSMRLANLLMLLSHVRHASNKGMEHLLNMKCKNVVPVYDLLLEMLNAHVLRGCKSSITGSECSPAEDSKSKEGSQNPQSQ

[O-][n+]1onc2c3cc(-c4ccccc4)[nH]c3ccc21
EC50 (Wee1-like protein kinase): > 6.19 µM (active)
EC50 [1]: > 55.7 µM (inactive)

CN1CCc2nc(SCC(=O)Nc3ccc(F)cc3)c(C#N)cc2C1
IC50 (Estrogen receptor): > 50 µM (not active)
AC50 [2]: > 380 µM (inactive)
EC50 (Protein RecA): 38 µM (active)

CC1(C)N=C(N)N=C(Nc2cccc(Br)c2)N1
EC50 [3]: > 50 µM (active)

CCOC(=O)c1c(C)oc2c1c(C(c1cccnc1)N1CCCCC1)c(O)c1ccccc12 (stereo not drawn)
IC50 (Estrogen receptor): > 50 µM (not active)
IC50 (Estrogen receptor beta): > 50 µM (not active)

COc1ccccc1-c1nnc(SC)[nH]1
IC50 [4]: > 100 µM (not active)
IC50 [5]: > 100 µM (inactive)
IC50 [6]: 7.95 µM (active)

COc1ccc2nc(NC(=O)C3CC(=O)N(c4ccccc4)C3)sc2c1 (stereo not drawn)
EC50 [3]: > 50 µM (active)

CCOc1cc(CNC(C)(C)CO)cc(Br)c1OCc1ccc(Cl)cc1Cl
EC50 [7]: 7.54 µM (active)
EC50 [8]: 6.52 µM (active)
CC50 [9]: 13.4 µM (active)
CC50 [10]: 13.7 µM (active)
CC50 [11]: 7.44 µM (active)
IC50 (cells): 10.5 µM (active)

Cc1cc(C)n2cc(CSc3nnc(-c4ccccc4)c(-c4ccccc4)n3)nc2n1
IC50 (Hexokinase HKDC1): 12.5 µM (active)

OCCSc1n[nH]c(-c2ccccc2)n1
IC50 [4]: > 100 µM (not active)
IC50 [5]: > 100 µM (inactive)
IC50 [6]: 16.2 µM (active)

Cc1cc(O)nc(-n2nc(C)cc2NC(=O)c2cccc(Cl)c2)n1
EC50 (Wee1-like protein kinase): > 49.7 µM (inactive)
EC50 [1]: > 49.7 µM (inactive)

Cc1cc(O)nc(-n2nc(C)cc2NC(=O)Cc2ccccc2)n1
EC50 (Wee1-like protein kinase): > 49.7 µM (inactive)
EC50 [1]: > 49.7 µM (inactive)

Cc1nc2c(c(=O)c3ccccc3n2C)c(=O)n1-c1ccc(F)cc1
IC50 (Hexokinase HKDC1): 8.25 µM (active)

Cc1ccc(NC(=O)OCc2cccs2)cc1
EC50 [3]: > 50 µM (active)
